According to ChEMBL document CHEMBL3102801, “Synthesis and antiproliferative activity of new derivatives containing the polycyclic system 5,7:7,13-dimethanopyrazolo[3,4-b]pyrazolo[3',4':2,3]azepino[4,5-f]azocine” (Eur J Med Chem, 2014):
The source made the active and inactive calls. The calls are words filed in the database; no cut-off is given here.

How the values were obtained:
SK-MEL-2 = assay: Growth inhibition of human SK-MEL-2 cells after 48 hrs by sulforhodamine B assay; format: functional; settings: SK-MEL-2, 48 h
[1] = Growth inhibition of human UACC257 cells after 48 hrs by sulforhodamine B assay; format: functional; settings: UACC-257, 48 h
[2] = Growth inhibition of human SF539 cells after 48 hrs by sulforhodamine B assay; format: functional; settings: SF-539, 48 h
MDA-MB-231 [3] = assay: Cell cycle arrest in human MDA-MB-231 cells assessed as accumulation of G0-G1 phase at 5 uM after 48 hrs using propidium iodide staining by flow cytometric analysis (reference value: 42.2%); format: functional
NCI-H23 = assay: Growth inhibition of human NCI-H23 cells after 48 hrs by sulforhodamine B assay; format: functional; settings: NCI-H23, 48 h
SR = assay: Growth inhibition of human SR cells after 48 hrs by sulforhodamine B assay; format: functional
SW-620 = assay: Growth inhibition of human SW620 cells after 48 hrs by sulforhodamine B assay; format: functional; settings: SW-620, 48 h
[4] = Growth inhibition of human OVCAR4 cells after 48 hrs by sulforhodamine B assay; format: functional; settings: OVCAR-4, 48 h
OVCAR-3 = assay: Growth inhibition of human OVCAR3 cells after 48 hrs by sulforhodamine B assay; format: functional; settings: OVCAR-3, 48 h
MDA-MB-435 = assay: Growth inhibition of human MDA-MB-435 cells after 48 hrs by sulforhodamine B assay; format: functional; settings: MDA-MB-435, 48 h
SK-MEL-28 = assay: Growth inhibition of human SK-MEL-28 cells after 48 hrs by sulforhodamine B assay; format: functional; settings: SK-MEL-28, 48 h
786-0 = assay: Growth inhibition of human 786-0 cells after 48 hrs by sulforhodamine B assay; format: functional; settings: 786-0, 48 h
A549 = assay: Growth inhibition of human A549 cells after 48 hrs by sulforhodamine B assay; format: functional; settings: A549, 48 h
HOP-62 = assay: Growth inhibition of human HOP62 cells after 48 hrs by sulforhodamine B assay; format: functional; settings: HOP-62, 48 h
U-251 = assay: Growth inhibition of human U251 cells after 48 hrs by sulforhodamine B assay; format: functional; settings: U-251, 48 h
OVCAR-8 = assay: Growth inhibition of human OVCAR8 cells after 48 hrs by sulforhodamine B assay; format: functional; settings: OVCAR-8, 48 h
MDA-MB-231 [5] = assay: Cell cycle arrest in human MDA-MB-231 cells assessed as accumulation of G2-M phase at 5 uM after 48 hrs using propidium iodide staining by flow cytometric analysis (reference value: 27.5%); format: functional
Malme-3M = assay: Growth inhibition of human MALME-3M cells after 48 hrs by sulforhodamine B assay; format: functional
SK-OV-3 = assay: Growth inhibition of human SKOV3 cells after 48 hrs by sulforhodamine B assay; format: functional; settings: SK-OV-3, 48 h
[6] = biological target: T1, Retinoblastoma-associated protein (Homo sapiens) (UniProt P06400); assay: Inhibition of pRb p110 phosphorylation in human HCT116 cells at 5 to 10 uM after 48 hrs by Western blotting relative to unphosphorylated p105; format: cell-based; settings: HCT-116
T1 sequence (whole entry): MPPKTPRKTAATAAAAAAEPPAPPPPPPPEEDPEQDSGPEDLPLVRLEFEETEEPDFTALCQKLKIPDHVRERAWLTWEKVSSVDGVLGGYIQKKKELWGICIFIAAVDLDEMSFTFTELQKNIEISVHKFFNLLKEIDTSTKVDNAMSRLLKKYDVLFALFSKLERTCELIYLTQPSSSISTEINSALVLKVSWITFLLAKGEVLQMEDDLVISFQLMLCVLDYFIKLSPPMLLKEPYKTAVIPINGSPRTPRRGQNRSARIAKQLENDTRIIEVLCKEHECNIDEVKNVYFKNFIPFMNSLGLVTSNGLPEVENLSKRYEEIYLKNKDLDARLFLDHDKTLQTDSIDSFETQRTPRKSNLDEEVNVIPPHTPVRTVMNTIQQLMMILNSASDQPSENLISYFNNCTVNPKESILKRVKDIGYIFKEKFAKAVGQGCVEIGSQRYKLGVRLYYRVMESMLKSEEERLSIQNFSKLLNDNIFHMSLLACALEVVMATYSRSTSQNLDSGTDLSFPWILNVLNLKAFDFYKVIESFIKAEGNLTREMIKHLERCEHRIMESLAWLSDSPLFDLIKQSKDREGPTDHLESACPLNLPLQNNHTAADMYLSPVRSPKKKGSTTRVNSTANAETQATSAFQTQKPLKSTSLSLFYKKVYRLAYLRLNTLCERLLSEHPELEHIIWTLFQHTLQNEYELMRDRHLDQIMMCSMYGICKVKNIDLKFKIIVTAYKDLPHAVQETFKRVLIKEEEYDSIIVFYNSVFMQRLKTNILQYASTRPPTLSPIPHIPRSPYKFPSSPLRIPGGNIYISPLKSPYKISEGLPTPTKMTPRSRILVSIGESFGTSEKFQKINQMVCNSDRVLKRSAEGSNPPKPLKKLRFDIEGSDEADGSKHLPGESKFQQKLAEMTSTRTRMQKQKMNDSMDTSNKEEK

HCT-116 [7] = assay: Cell cycle arrest in human HCT116 cells assessed as accumulation of sub-G0-G1 phase at 5 uM after 48 hrs using propidium iodide staining by flow cytometric analysis (reference value: 15.2%); format: functional
HCT-116 [8] = assay: Cell cycle arrest in human HCT116 cells assessed as accumulation of G0-G1 phase at 5 uM after 48 hrs using propidium iodide staining by flow cytometric analysis (reference value: 45.7%); format: functional
[9] = Growth inhibition of human Hs 578T cells after 48 hrs by sulforhodamine B assay; format: functional
HCT-116 [10] = assay: Cell cycle arrest in human HCT116 cells assessed as accumulation of G0-G1 phase at 10 uM after 48 hrs using propidium iodide staining by flow cytometric analysis (reference value: 45.7%); format: functional
HCT-15 = assay: Growth inhibition of human HCT15 cells after 48 hrs by sulforhodamine B assay; format: functional; settings: HCT-15, 48 h
[11] = Cytotoxicity against human HuDe cells after 48 hrs by sulforhodamine B assay; format: cell-based
DU-145 = assay: Growth inhibition of human DU145 cells after 48 hrs by sulforhodamine B assay; format: functional; settings: DU-145, 48 h
NCI-H522 = assay: Growth inhibition of human NCI-H522 cells after 48 hrs by sulforhodamine B assay; format: functional; settings: NCI-H522, 48 h
[12] = biological target: T1, Retinoblastoma-associated protein (Homo sapiens); assay: Inhibition of pRb p110 phosphorylation in human HCT116 cells after 48 hrs by Western blotting; format: cell-based; settings: HCT-116
HL-60(TB) = assay: Growth inhibition of human HL-60(TB) cells after 48 hrs by sulforhodamine B assay; format: functional; settings: HL-60, 48 h
HCT-116 [13] = assay: Cell cycle arrest in human HCT116 cells assessed as accumulation of G2-M phase at 5 uM after 48 hrs using propidium iodide staining by flow cytometric analysis (reference value: 19.2%); format: functional
M14 = assay: Growth inhibition of human M14 cells after 48 hrs by sulforhodamine B assay; format: functional; settings: M14, 48 h
LOX IMVI = assay: Growth inhibition of human LOXIMVI cells after 48 hrs by sulforhodamine B assay; format: functional

C=C1c2c(C)nn(-c3ccc(OC)cc3)c2N(C)C23CC1C1(C)c4c(C)nn(-c5ccc(OC)cc5)c4N(C)C(C)(CC12)C3 (stereo not drawn)
GI50 (SK-MEL-2): 3.23 µM
GI50 [1]: 2.68 µM
GI50 [2]: 3.16 µM
Activity (MDA-MB-231 [3]): 53.5%
GI50 (NCI-H23): 3.86 µM
GI50 (SR): 3.16 µM
GI50 (SW-620): 3.63 µM
GI50 [4]: 3.56 µM
GI50 (OVCAR-3): 3.27 µM
GI50 (MDA-MB-435): 3.4 µM
GI50 (SK-MEL-28): 5.86 µM
GI50 (786-0): 4.23 µM
GI50 (A549): 2.69 µM
GI50 (HOP-62): 4.28 µM
GI50 (U-251): 2.67 µM
GI50 (OVCAR-8): 3.4 µM
Activity (MDA-MB-231 [5]): 18.6%
GI50 (Malme-3M): 3.24 µM
GI50 (SK-OV-3): 3.39 µM
inhibition [6]: Active
Activity (HCT-116 [7]): 14.3%
Activity (HCT-116 [8]): 59%
GI50 [9]: 6.24 µM
Activity (HCT-116 [10]): 63.8%
GI50 (HCT-15): 3.11 µM
IC50 [11]: 76 µM
GI50 (DU-145): 4.38 µM
GI50 (NCI-H522): 2.77 µM
inhibition [12]: Dose-dependent effect
GI50 (HL-60(TB)): 2.54 µM
Activity (HCT-116 [13]): 12.3%
GI50 (M14): 3.88 µM
GI50 (LOX IMVI): 2.24 µM
